Measurements as given in US9708275B2, “Heterocyclic compounds and methods for their use” (Novartis AG, priority 2012, dated 2017).

Each compound was assayed against AT2 receptor (Homo sapiens (Human), UniProt P50052) (assay: AT2 receptor binding assay ([125I]-CGP42112A, HEK293/AT2 receptor cell membranes)). Conditions: displacement of [125I]-CGP42112A, RT 1.5 hrs.
Protocol: 1. Trypsin-EDTA (for preparation of 100 mL) • Trypsin 0.25 g • 2% EDTA 2 mL • PBS 98 mL • Dissolve trypsin in 2% EDTA and PBS completely; sterilize the solution by passing through a […] membrane filter; store at 4° C.
2. DMEM medium (for preparation of 1 L) • The powder was dissolved into 950 mL of distilled water with gentle stirring until the solution becomes clear. • Add NaHCO3 1.176 g for DMEM medium. • Adjust pH of medium to 0.2-0.3 below final working pH using 1 M NaOH or 1 M HCl. Add slowly with stirring. • Dilute to 1 liter with ddH2O. • Sterilize the medium immediately by filtration. • Store at 4° C.
3. TE buffer • 20 mM Tris-HCl, pH 7.4, • 5 mM EDTA
4. Binding Assay Buffer • 50 mM Hepes, pH 7.4 • 5 mM MgCl2 • 1 mM CaCl2 • 0.2% BSA
5. Wash Buffer • 50 mM Hepes, pH 7.4 Procedures for HEK293/AT2 Receptor Transient Cell Transfection • Cells were plated into 150 mm dish at 50% density for transient transfection. Cells were ready for transfection after overnight incubation (the confluence reaches around 80%). • 75 μL Lipofectamine™2000 diluted in 6.25 mL OptiMEM I Reduced Serum Medium, was mixed gently, and incubated at room temperature for 5 minutes. 50 μg expression plasmid DNA diluted in 6.25 mL OptiMEM I Reduced Serum Medium without serum was mixed gently. • After the 5 minute incubation, the diluted DNA was combined with the diluted Lipofectamine™2000 (total volume is 12.5 mL). The mixture was mixed gently and incubated for 30 minutes at room temperature to allow the DNA-Lipofectamine™2000 complexes to form. • The 12.5 mL DNA-Lipofectamine™2000 complexes were added into the 150 mm dish and mixed gently by rocking the dish back and forth. • The cells were incubated at 37° C. with 5% CO2 for 48 hours. • Cells were collected and stored frozen at −80° C. Procedures for HEK293/AT2 Receptor Cell Membrane Preparation • Frozen HEK293/AT2 receptor (transient transfected) cells were homogenized in ice cold TE buffer for 10 s. • The homogenate was centrifuged at 25,000 g for 30 minutes. • The pellet was resuspended in ice cold tissue buffer. • Protein concentrations were determined using Bradford assay method with BSA as standard. • The membrane protein was frozen under −80° C. Compound Preparation
Solutions of all compounds were prepared by microplate liquid handling equipment such as Janus or Precision 2000. Compounds, dissolved in DMSO were stored in a Freezer. Compounds were prepared from 30 mM in 100% DMSO.
Step 1: Dose plate preparation (96 well plate)
• Add the 3 μL [30 mM] compound stock to column 1 on the plate. • Add 15 μL of 100% DMSO to column 1. • Add 10.81 μL of 100% DMSO to column 2-12. • Transfer 5 μL from column 1 into column 2 (half log dilution). • Transfer 5 μL from column 2 into column 3 (half log dilution). • Transfer 5 μL from column 3 into column 4 (half log dilution). • Transfer 5 μL from column 4 into column 5 (half log dilution). • Transfer 5 μL from column 5 into column 6 (half log dilution). • Transfer 5 μL from column 6 into column 7 (half log dilution). • Transfer 5 μL from column 7 into column 8 (half log dilution). • Transfer 5 μL from column 8 into column 9 (half log dilution). • Transfer 5 μL from column 9 into column 10 (half log dilution) • Transfer 5 μL from column 10 into column 11 (half log dilution) • Transfer 5 μL from column 11 into column 12 (half log dilution).
All the compounds were diluted using Precision 2000 microplate liquid handling equipment. The top concentration of compound was 5 mM with 100% DMSO.
Step 2: Working plate preparation (96 well plate)
• Compounds were diluted 50-fold with buffer. • 49 μL buffer was added to the well of 96 well plate. • 1 μL compound solution from dose plate was transferred to the corresponding well of working plate. • The top concentration of compound was 100 μM with 2% DMSO. Step 3: Assay plate preparation (96 well plate)
15 μL of compound solution was transferred from each well of working plate to the well of assay plate by Janus. […]

Chain of AT2 receptor (P50052 whole entry, species assumed): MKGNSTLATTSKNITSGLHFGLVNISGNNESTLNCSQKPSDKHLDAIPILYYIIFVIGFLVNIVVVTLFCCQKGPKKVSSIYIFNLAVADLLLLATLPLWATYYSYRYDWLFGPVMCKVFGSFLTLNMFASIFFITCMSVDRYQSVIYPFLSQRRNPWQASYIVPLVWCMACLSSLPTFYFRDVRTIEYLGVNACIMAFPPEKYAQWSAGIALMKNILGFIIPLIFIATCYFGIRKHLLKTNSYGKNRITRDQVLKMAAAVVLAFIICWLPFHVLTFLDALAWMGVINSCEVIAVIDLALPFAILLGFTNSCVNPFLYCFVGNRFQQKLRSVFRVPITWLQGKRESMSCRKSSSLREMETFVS

SMILES | IC50
O=C(O)[C@@H]1CN(c2ccccc2)CCN1C(=O)C(c1ccccc1)c1ccccc1 [Compound 4, (S)-1-(2,2-diphenylacetyl)-4-phenylpiperazine-2-carboxylic acid] | 408 nM
O=C(O)[C@@H]1CN(Cc2ccccc2)CCN1C(=O)C(c1ccccc1)c1ccccc1 [Compound 5, (S)-4-benzyl-1-(2,2-diphenylacetyl)piperazine-2-carboxylic acid] | 383 nM
O=C(O)[C@@H]1CN(c2cc(-c3ccccc3)n(-c3ccccc3)n2)CCN1C(=O)C(c1ccccc1)c1ccccc1 [Compound 6, (S)-4-(1,5-diphenyl-1H-pyrazol-3-yl)-1-(2,2-diphenylacetyl)-piperazine-2-carboxylic acid] | 3040 nM
Cc1cc(N2CCN(C(=O)C(c3ccccc3)c3ccccc3)[C@H](C(=O)O)C2)n(-c2ccccc2)n1 [Compound 7, (3)-1-(2,2-diphenylacetyl)-4-(3-methyl-1-phenyl-1H-pyrazol-5-yl)piperazine-2-carboxylic acid] | 155 nM
O=C(O)[C@@H]1CN(CCc2ccccc2)CCN1C(=O)C(c1ccccc1)c1ccccc1 [Compound 8, (S)-1-(2,2-diphenylacetyl)-4-phenethylpiperazine-2-carboxylic acid] | 1270 nM
O=C(O)[C@@H]1CN(C/C=C/c2ccccc2)CCN1C(=O)C(c1ccccc1)c1ccccc1 [Compound 9, (S)-4-cinnamyl-1-(2,2-diphenylacetyl)piperazine-2-carboxylic acid] | 4100 nM

Results, then the compound that gave them:

IC50 | SMILES
517 nM | O=C(O)[C@@H]1CN(CCCc2ccccc2)CCN1C(=O)C(c1ccccc1)c1ccccc1 [Compound 10, (S)-1-(2,2-diphenylacetyl)-4-(3-phenylpropyl)piperazine-2-carboxylic acid]
40.3 nM | Cc1cc(N2CCN(C(=O)C(c3ccccc3)c3ccccc3)[C@H](C(=O)O)C2)n(Cc2ccccc2)n1 [Compound 16, (S)-4-(1-benzyl-3-methyl-1H-pyrazol-5-yl)-1-(2,2-diphenylacetyl)piperazine-2-carboxylic acid]
93.8 nM | O=C(O)[C@@H]1CN(c2cc(C(F)(F)F)nn2Cc2ccccc2)CCN1C(=O)C(c1ccccc1)c1ccccc1 [Compound 23, (S)-4-(1-benzyl-3-(-trifluoromethyl)-1H-pyrazol-5-yl)-1-(2,2-diphenylacetyl)piperazine-2-carboxylic acid]
4160 nM | O=C(O)[C@@H]1CN(CC#Cc2ccccc2)CCN1C(=O)C(c1ccccc1)c1ccccc1 [Compound 24, (S)-1-(2,2-diphenylacetyl)-4-(3-phenylprop-2-yn-1-yl)piperazine-2-carboxylic acid]
1320 nM | O=C(O)[C@@H]1CN(CCC#Cc2ccccc2)CCN1C(=O)C(c1ccccc1)c1ccccc1 [Compound 26, (S)-1-(2,2-diphenylacetyl)-4-(4-phenylbut-3-yn-1-yl)piperazine-2-carboxylic acid]
